Values of other authors, collected in publication PMC5454779 (Biochemistry, 2011).

Molecular target: ssDNA
Settings: read-out: Kd of cold shock protein A with ssDNA; single OB-fold; ref [9]

Kd: 6 µM
Substance: cold shock protein A: cold shock protein consisting of a single OB-fold
